Assay results taken from patent publication US12065420B2, “Uses of balaenone and method of extraction thereof” (HARDIE HEALTH LIMITED, priority 2018, dated 2024).

Experiments:
[1] = Storage stability of Balaenone; assay type: physicochemical; conditions: away from light and oxygen
Excerpt: Final purification of trans-Balaenone on silica gel separated it from an oxygenated aromatic compound, subsequently identified as halifordin (8). Without being bound by theory, it is believed that degradation is due to the presence of halifordin (8), which is also present in the methanol extract of M. latifolia.
In a separate experiment, purified trans-Balaenone was photochemically reacted with atmospheric oxygen in the presence of Rose Bengal (another known photogenerator of singlet oxygen), which generated 7b among other oxidation products.
Removal of halifordin (8) from the extract provides a purified composition of trans-Balaenone in which trans-Balaenone is stable at room temperature, when stored away from light and oxygen. It is believed that the same process would occur with respect to cis-Balaenone.

[2] = system: Staphylococcus epidermidis; assay: TLC bioautography antibacterial assay, S. epidermidis; assay type: cell-based; conditions: qualitative
Description: (§1) The crude (1st methanolic) extract of M. latifolia bark and five chromatographic fractions obtained using the purification process outlined in Example 1 were submitted for TLC bioautography studies for qualitative determination of antibacterial activity.
(§2) Briefly, a reference plate was prepared by loading the samples on a silica gel TLC plate which was developed using an established solvent system (10% ethyl acetate in petroleum ether) to separate their components based on polarity. The developed plates were then visualised using 5% v/v sulfuric acid in methanol+0.1% w/v vanillin in ethanol, followed by heat. Using this method, Balaenone was distinguished as a bright pink to red spot (see FIG. 7).
(§3) Multiple copies of this plate were then prepared and developed using the same solvent system, but instead are visualised by pouring agar inoculated/spiked with one of the following micro-organisms (see below) and allowed to incubate before visualisation with a reduction dye.

Staphylococcus aureus = assay: TLC bioautography antibacterial assay, S. aureus; assay type: cell-based; conditions: qualitative
Description: as §1, §2, §3

| stability on storage ([1]; cool temperatures) | stability on storage ([1]; room temperature, in the absence of halifordin (8)) | Compound | antibacterial activity (zones of inhibition) [2] | antibacterial activity (zones of inhibition) (Staphylococcus aureus) |
| --- | --- | --- | --- | --- |
| quite stable | essentially stable | CC1=C2c3c(C)coc3CC[C@H](C)[C@H]2CC1=O [trans-Balaenone, (6S,6aR)-1,6,9-trimethyl-5,6,6a,7-tetrahydroazuleno[5,4-b]furan-8(4H)-one] |  |  |
|  |  | CC1=C2c3c(C)coc3CCC(C)C2CC1=O (stereo not shown) [Balaenone] | zones of inhibition | zones of inhibition |
